Results taken from US20200101108A1, “METHODS OF TREATING T CELL EXHAUSTION BY INHIBITING OR MODULATING T CELL RECEPTOR SIGNALING” (THE BOARD OF TRUSTEES OF THE LE-LAND STANDFORD JUNIOR …, priority 2017, published 2020).
One block for each compound: values may come before it.

Key:
HA-GD2.28z CAR T cells [1] = assay: Incucyte cytotoxicity after expansion in drug and removal of drug before tumor co-culture; conditions: expanded in drug, drug removed 18-24 hours before 72 hours co-culture
Fyn = Fyn (Homo sapiens, UniProt P06241); conditions: cited from earlier work
Chain of Fyn (P06241 whole entry, species assumed): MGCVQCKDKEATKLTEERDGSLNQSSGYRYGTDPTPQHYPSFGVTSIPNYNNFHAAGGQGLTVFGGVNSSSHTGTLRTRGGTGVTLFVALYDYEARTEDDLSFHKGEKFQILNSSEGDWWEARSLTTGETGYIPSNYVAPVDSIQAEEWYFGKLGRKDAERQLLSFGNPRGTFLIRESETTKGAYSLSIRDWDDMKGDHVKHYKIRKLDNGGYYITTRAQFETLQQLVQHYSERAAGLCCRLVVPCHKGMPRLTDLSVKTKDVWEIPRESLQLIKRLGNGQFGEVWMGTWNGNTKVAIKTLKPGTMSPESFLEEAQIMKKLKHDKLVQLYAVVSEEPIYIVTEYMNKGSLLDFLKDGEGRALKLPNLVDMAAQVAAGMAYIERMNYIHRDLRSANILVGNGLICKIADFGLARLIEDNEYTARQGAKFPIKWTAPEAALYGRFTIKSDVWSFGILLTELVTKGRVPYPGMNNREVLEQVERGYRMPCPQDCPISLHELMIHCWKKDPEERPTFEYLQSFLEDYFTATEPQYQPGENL

HA-GD2.28z CAR T cells [2] = assay: Cytokine release after expansion in drug and removal of drug before tumor co-culture; assay type: cell-based, human
Src kinases = conditions: cited from earlier work
HA-GD2.28z CAR T cells [3] = assay: Cytokine release assay (ELISA), CAR T cells co-cultured with GD2-overexpressing nalm6 in presence of drug; conditions: drug present during 24 hours co-culture
Lck = Lck (Homo sapiens, UniProt P06239); conditions: cited from earlier work
Chain of Lck (P06239 whole entry, species assumed): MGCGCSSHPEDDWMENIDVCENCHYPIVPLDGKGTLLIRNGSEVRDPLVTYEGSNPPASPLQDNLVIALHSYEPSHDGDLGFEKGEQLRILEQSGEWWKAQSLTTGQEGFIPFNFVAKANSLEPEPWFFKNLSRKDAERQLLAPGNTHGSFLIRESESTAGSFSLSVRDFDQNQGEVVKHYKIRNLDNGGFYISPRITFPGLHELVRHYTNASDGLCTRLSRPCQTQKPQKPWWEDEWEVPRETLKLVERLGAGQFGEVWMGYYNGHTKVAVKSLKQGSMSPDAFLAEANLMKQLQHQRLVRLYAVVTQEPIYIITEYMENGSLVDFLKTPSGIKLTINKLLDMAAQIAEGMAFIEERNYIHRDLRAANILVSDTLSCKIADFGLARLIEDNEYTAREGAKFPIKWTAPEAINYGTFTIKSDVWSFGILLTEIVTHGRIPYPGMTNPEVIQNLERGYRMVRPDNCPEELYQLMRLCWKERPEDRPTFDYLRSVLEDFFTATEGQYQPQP

CD19.28z CAR T cells = assay: CAR T cell activation and degranulation (CD69/CD107a) on co-culture with Nalm6 tumor cells in presence of drug; conditions: nanomolar levels; 6 hours co-culture with tumor
GD2.28z.FKBP CAR = assay: Regulation of GD2.28z.FKBP CAR surface expression by shield-1 (FACS); assay type: cell-based, human; conditions: adding or subtracting shield-1 in culture medium
Description: FIG. 1: Characterization of the GD2.28z.FKBP CAR. T cells were transduced with lentivirus encoding the GD2.28z.FKBP CAR on day 1 after activation and subsequently cultured with various concentrations of shield-1 in the growth medium. On day 7, CAR expression was quantified via FACS.

[4] = target: CD19 (Homo sapiens (Human)) (UniProt P15391)

Compound: Cc1ccc(C(=O)Nc2ccc(CN3CCN(C)CC3)c(C(F)(F)F)c2)cc1C#Cc1cnc2cccnn12 [ponatinib, 3-(imidazo[1,2-b]pyridazin-3-ylethynyl)-4-methyl-N-(4-((4-methylpiperazin-1-yl)methyl)-3-(trifluoromethyl)phenyl)benzamide]
cytotoxic response (HA-GD2.28z CAR T cells [1]): more potent cytotoxic response
inhibition of Fyn (Fyn): does not affect the function of Fyn or Src kinases
reversibility of the inhibitory effect on CAR T cell function (HA-GD2.28z CAR T cells [2]): reversible
CAR T cell cytokine secretion (HA-GD2.28z CAR T cells [2]; expanded in drug, drug removed 18-24 hours before 24 hours co-culture): dose-dependently augmented
inhibition of Src kinases (Src kinases): does not affect the function of Fyn or Src kinases
IFNγ secretion in response to tumor (HA-GD2.28z CAR T cells [3]): potently inhibited
IL-2 secretion in response to tumor (HA-GD2.28z CAR T cells [3]): potently inhibited
inhibition of Lck (Lck): can bind to and inhibit Lck
activation and degranulation (CD69 and CD107a co-expression) (CD19.28z CAR T cells): potently inhibited activation and degranulation of CAR T cells in a dose-dependent manner

Compound: CC[C@H](C(=O)N1CCCC[C@H]1C(=O)O[C@H](CCc1ccc(OC)c(OC)c1)c1cccc(OCCN2CCOCC2)c1)c1cc(OC)c(OC)c(OC)c1 [shield-1]
CAR surface expression (GD2.28z.FKBP CAR): rapidly and dose-dependently regulated

CD69 and CD107a surface expression (FACS) after 6 h co-culture [4]: 80%
Compound: CD19.28z CAR (FMC63 scFv)
